Read-outs that look alike come from different tables or passages of the source.
Legend:
MT-2 cells = assay: Cytotoxicity in MT-2 cells, flow cytometry cell counts and viability; format: cell-based, human; conditions: 72 hrs, read-out: CC50, 50% Cytotoxic concentration MT2 cells T cell leukemia
Method: (§1) MT-2 cells were incubated with drug for 72 hrs and harvested. Flow count beads (Beckman Coulter, Miami, Fla.) were added to the cell suspension followed by propidium iodide staining and analysis using flow cytometer and the 50% cytotoxic concentration (CC50) was calculated from the cell counts and viability.

HPV-11 = HPV-11 origin replication in HEK 293 cells, qPCR; format: cell-based; conditions: for EC90: read-out: EC90 (concentration required to reduce viral replication by 90%)
Method: (§2) An origin-containing plasmid was co-transfected with HPV-11 E1 and E2 protein expression vectors into HEK 293 cells. At 4 hr post-transfection, cells were treated with compound dilutions and the cells were incubated for 48 hr. Replication of the virus origin was detected with DpnI and exonuclease III to remove unreplicated input bacterial plasmid DNA. Remaining replicated DNA was quantified by qPCR. Toxicity was determined by trypan blue exclusion.

[1] = Cytotoxicity in MT-2 cells, flow cytometry cell counts and viability; format: cell-based, human; conditions: human; MT-2 cells, 72 hrs
Method: as §1

[2] = Toxicity in HEK 293 cells by trypan blue exclusion (HPV-11 example); format: cell-based; conditions: human
Method: as §2

HPV-16 = HPV-16 origin replication in HEK 293 cells, qPCR; format: cell-based; conditions: for Selectivity Index: HPV-16, HEK 293 cells
Method: as §2, with “HPV-16” for “HPV-11”

[3] = Toxicity in HEK 293 cells by trypan blue exclusion (HPV-16 example); format: cell-based; conditions: human
Method: as §2, with “HPV-16” for “HPV-11”

[4] = Viability of PBMC by XTT reduction; conditions: human
HIV-1LAI = assay: HIV antiviral assay in MT-2 cells, p24 reduction; conditions: Human immunodeficiency virus 1, MT2, 96 h
[5] = Cytotoxicity in 2.2.15 cells by neutral red uptake; conditions: human
[6] = Cytotoxicity in HFF cells in parallel to HSV-1 assay; conditions: human, […]
[7] = African green monkey, uninfected COS7 cells
Hepatitis B virus = assay: HBV replication in 2.2.15 cells, HBV DNA blot hybridization; conditions: for EC50: Hepatitis B virus, 168 h; for Selectivity Index: hepatitis B virus, 2.2.15 cells
[8] = Cytotoxicity in HFF cells in parallel to cytomegalovirus assay; conditions: human, […]
MAD-1 strain of JC virus = assay: Antiviral effect in JC virus (MAD-1) infected COS7 cells, qPCR
[9] = human
HIV-192US727 = assay: Anti-HIV assay in human PBMC, supernatant reverse transcriptase activity; conditions: for Selectivity Index: HIV-192US727, human PBMC
[10] = tested on: AD169 strain of human cytomegalovirus; assay: Antiviral effect in HFF cells infected with human cytomegalovirus (AD169)
[11] = tested on: BK virus (Gardner strain); assay: Antiviral effect in HFF cells infected with BK virus (Gardner strain), qPCR
[12] = tested on: Human peripheral blood monocyte (PBMC); assay: Viability of PBMC by XTT reduction; conditions: human PBMC, XTT reduction
[13] = Cytotoxicity in HFF cells in parallel to HSV-2 assay; conditions: human, […]
[14] = Effect of oral compounds on body weight in Balb-c mice; format: in vivo; conditions: for body weight Day 0: before dosing; for lost % of body weight: day 6 versus day zero
Method: Compounds were administered at the indicated doses by oral gavage daily for 5 days. Weights measured before and on day 6 after 5 doses.

[15] = HPV-11 origin replication in HEK 293 cells, 48 hr, qPCR
[16] = Human immunodeficiency virus 1, PBMC, 168 h

CCCCCCCCCCCCCCCCCCOCCOP(=O)(COCCn1cnc2c(=O)[nH]c(N)nc21)OCc1ccccc1 (single isomer, unassigned) [Compound 1a, benzyl octadecyloxyethyl 9-(2-phosphonomethoxyethyl)guanine] showed a CC50 (MT-2 cells) of under 0.01 µM and an EC90 (HPV-11; [15]) of 1.06 µM.

In the case of CCCCCCCCCCCCCCCCCCOCCOP(=O)(COCCn1cnc2c(=O)[nH]c(N)nc21)OCc1ccccc1 (single isomer, unassigned) [Compound 1b, benzyl octadecyloxyethyl 9-(2-phosphonomethoxyethyl)guanine], the CC50 (MT-2 cells) is reported as under 0.01 µM and the EC90 (HPV-11; [15]) is reported as 1.16 µM.

With CCCCCCCCCCCCCCCCCCOCCOP(=O)(COCCn1cnc2c(N)ncnc21)OCc1ccccc1 (centres unmarked) [Compound 2, benzyl octadecyloxyethyl 9-(2-phosphonomethoxyethyl)adenine] the CC50 at 72 h [1] was under 0.01 µM, the CC50 (MT-2 cells; Homo sapiens, MT2) was under 0.01 µM and the EC50 (HPV-11; HEK293, HPV-11 origin replication in HEK 293 cells, 48 hr, qPCR) was 0.27 µM. For the same compound, the “Selectivity Index” value (HPV-11; HPV-11, HEK 293 cells) was over 130, the CC50 at 48 h [2] was over 100 µM and the EC50 (HPV-16; HEK293, HPV-16 origin replication in HEK 293 cells, 48 hr, qPCR, read-out: EC50) was 0.99 µM. The “Selectivity Index” value (HPV-16) was over 10.1, the CC50 at 48 h [3] was over 10 µM and the CC50 at 7 days ([4]; PHA-stimulated human PBMCs) was 11 µM. The EC50 (HIV-1LAI) was under 0.01 nM, the CC50 at 7 days [5] was over 100 µM and the CC50 at 3 days [6] was 16.6 µM. For the same compound, the CC50 at 7 days [7] was 10.6 µM, the EC50 (Hepatitis B virus) was 0.88 µM and the “Selectivity Index” value (Hepatitis B virus) was over 113. The CC50 at 14 days [8] was 18.3 µM, the EC50 (MAD-1 strain of JC virus; JC polyomavirus, COS-7, 168 h) was over 4 µM and the “Selectivity Index” value (MAD-1 strain of JC virus; JC virus (MAD-1), COS7 cells) was under 2.7. The CC50 at 14 days [9] was 7.14 µM, the “Selectivity Index” value (HIV-192US727) was over 1100 and the EC50 (HIV-192US727; [16]) was under 0.01 µM. For the same compound, the EC50 ([10]; Human betaherpesvirus 5, AD169, HFF, 336 h) was 0.11 µM, the “Selectivity Index” value ([10]; human cytomegalovirus (AD169), HFF cells) was 166 and the “Selectivity Index” value ([11]; BK virus (Gardner strain), HFF cells) was over 238. It also gave an EC50 ([11]; Betapolyomavirus hominis, HFF, 336 h) of under 0.03 µM.

With CCCCCCCCCCCCCCCCCCOCCOP(=O)(COCCn1cnc2c(=O)[nH]c(N)nc21)Oc1ccccc1 (centres unmarked) [Compound 19, phenyl octadecyloxyethyl 9-(2-phosphonomethoxyethyl)guanine] the EC50 (HPV-16; HEK293, 48 h) was 5.27 µM, the “Selectivity Index” value (HPV-16) was over 1.9 and the CC50 at 48 h [3] was over 10 µM. It also gave a CC50 at 7 days [4] of 0.018 µM, a CC50 at 7 days [5] of over 100 µM and an EC50 (Hepatitis B virus) of 43 µM. The “Selectivity Index” value (Hepatitis B virus) was over 2.33, the “Selectivity Index” value (HIV-192US727) was over 9.0 and the EC50 (HIV-192US727; [16]) was under 0.003 µM.

With CCCCCCCCCCCCCCCCOCCCOP(=O)(COCCn1cnc2c(=O)[nH]c(N)nc21)Oc1ccccc1 (centres unmarked) [Compound 25, phenyl hexadecyloxypropyl 9-(2-phosphonomethoxyethyl)guanine] the CC50 [12] was 0.25 µM and the EC50 (HIV-192US727; HIV-192US727 infected human PBMC, 7 days, supernatant reverse transcriptase activity) was under 0.002 µM.

CCCCCCCCCCCCCCCCCCOCCOP(=O)(CO[C@H](C)Cn1cnc2c(=O)[nH]c(N)nc21)OCc1ccccc1 (stereo partly drawn) [Compound 73, benzyl octadecyloxyethyl 9-(R)-[(2-phosphonomethoxy)propyl]guanine] gave a CC50 at 7 days ([4]; PHA-stimulated human PBMCs) of 11.3 µM, a CC50 at 7 days [5] of 63 µM and an EC50 (Hepatitis B virus) of 34 µM. The “Selectivity Index” value (Hepatitis B virus) was 1.9, the “Selectivity Index” value (HIV-192US727) was over 2260 and the EC50 (HIV-192US727; [16]) was under 0.005 µM.

CCCCCCCCCCCCCCCCCCOCCOP(=O)(CO[C@H](C)Cn1cnc2c(N)ncnc21)OCc1ccccc1 (stereo partly drawn) [Compound 74, benzyl octadecyloxyethyl 9-(R)-[(2-phosphonomethoxy)propyl]adenine] showed a CC50 at 7 days ([4]; PHA-stimulated human PBMCs) of 24.6 µM, a CC50 at 7 days [5] of 64 µM and an EC50 (Hepatitis B virus) of 6.5 µM. For the same compound, the “Selectivity Index” value (Hepatitis B virus) was 10, the “Selectivity Index” value (HIV-192US727) was over 4920 and the EC50 (HIV-192US727; [16]) was under 0.005 µM.

Work on CCCCCCCCCCCCCCCCCCOCCOP(=O)(CO[C@H](COC)Cn1cnc2c(N)ncnc21)OCc1ccccc1 (stereo partly drawn) [Compound 146, benzyl octadecyloxyethyl 9-(S)-[(3-methoxy-2-phosphonomethoxy)propyl]adenine] yielded a CC50 at 7 days ([4]; PHA-stimulated human PBMCs) of 12.5 µM, a CC50 at 7 days [5] of over 100 µM and an EC50 (Hepatitis B virus) of 33 µM. The “Selectivity Index” value (Hepatitis B virus) was over 3.03, the “Selectivity Index” value (HIV-192US727) was over 312 and the EC50 (HIV-192US727; [16]) was under 0.04 µM.

CCCCCCCCCCCCCCCCCCOCCOP(=O)(CO[C@H](COC)Cn1cnc2c(N)ncnc21)Oc1ccccc1 (stereo partly drawn) [Compound 164, phenyl octadecyloxyethyl 9-(S)-[(3-methoxy-2-phosphonomethoxy)propyl]adenine] gave a CC50 at 7 days [4] of 15 µM, a CC50 at 7 days [5] of over 100 µM and an EC50 (Hepatitis B virus) of 0.46 µM. For the same compound, the “Selectivity Index” value (Hepatitis B virus) was over 216, the “Selectivity Index” value (HIV-192US727) was over 37.5 and the EC50 (HIV-192US727; [16]) was under 0.4 µM.

With CCCCCCCCCCCCCCCCCCOCCOP(=O)(CO[C@H](CO)Cn1ccc(=O)[nH]c1=O)OCc1ccccc1 (stereo partly drawn) [Compound 221, benzyl octadecyloxyethyl 9-(S)-[3-hydroxy-2-(phosphonomethoxy)propyl]uracil] the CC50 at 3 days [13] was over 10 µM.

For CCCCCCCCCCCCCCCCCCOCCOP(=O)(O)CO[C@H](CO)Cn1ccc(N)nc1=O [ODE-CDV], the “body weight Day 6” value ([14]; 20 mg/kg/day oral gavage daily for 5 days) was 16.96 ± 1.38 (6), the “body weight Day 0” value ([14]; 20 mg/kg/day oral gavage) was 19.88 ± 0.55 (6) and the “lost % of body weight” value ([14]; 20 mg/kg/day) was 14.7%.

For CCCCCCCCCCCCCCCCCCOCCOP(=O)(O)COCCn1cnc2c(=O)[nH]c(N)nc21 [ODE-PMEG, octadecyloxyethyl 9-[2-(phosphonomethoxy)ethyl]guanine], the “body weight Day 6” value ([14]; 4 mg/kg/day oral gavage daily for 5 days) was 15.5 ± 0.514 (3), the “body weight Day 0” value ([14]; 4 mg/kg/day oral gavage) was 19.17 ± 0.581 (3) and the “lost % of body weight” value ([14]; 4 mg/kg/day) was 19.1%.
